Measured values: PMC12264794, “Homoleptic complexes of titanium(IV) fused with O^N^O Schiff base derivatives: design, BSA–DNA interaction, molecular docking, DFT and cytotoxicity” (RSC Advances, 2025)

Legend:
[1] = DPPH radical scavenging assay; type: biochemical; details: 40 minutes, absorbance at 517 nm
Excerpt: In the current study, 1,1-diphenyl 2-picrylhydrazyl (DPPH) radical scavenging screening determined the antioxidant properties of the synthesized Ti(IV) complexes. The spectrophotometric principle that led to the quenching of stable-colored radicals (DPPH) is the foundation of DPPH assays.[62] By detecting the drop in absorbance at 517 nm, which corresponds to the DPPH free radical, the scavenging activity of the produced complexes can be determined. The result of the reaction between the scavenger and colored free radical is 1,1-diphenyl-2-picrylhydrazine (DPPH-H), which lacks color. The newly synthesized Ti(IV) complexes were dissolved at a ratio of 1 mg mL^−1 in DMSO to create the stock solution. Similarly, methanol was used to prepare a stock solution of a 0.05 Mm DPPH solution. The Ti(IV) complexes were dissolved in DPPH stock solution to make (9.5 μM, 18.75 μM, 37.5 μM, 75 μM, 100 μM, and 300 μM) concentrations of the complexes and kept in a state of rest for 40 minutes under closed conditions. The absorbance of the Ti(IV) complexes was measured at 517 nm after 40 minutes for each solution loaded in 96-well plates using a Bio-Rad xMARK™ Microplate Spectrophotometer. For comparison, the absorbance of a control solution containing DPPH and methanol as blank, devoid of test samples, was also measured at the same level. Three sets of experiments were conducted for each concentration, using ascorbic acid as the standard reference. Using eqn (1), the proportion of DPPH free radical scavenging activity was calculated.[63]1 [drawing 1] where Ac and As are the absorbance of the control and the mixture. The necessary concentration of the Ti(IV) complexes to scavenge DPPH radicals was determined by employing linear regression to plot a curve between concentration and % inhibition.
In order to ascertain the antioxidant activity of the Ti(IV) complexes, a UV-vis spectrophotometric examination was performed using the 1,1-diphenyl-2-picrylhydrazyl (DPPH) method. Since DPPH is thought to be a dependable, stable, free radical, it reacts with methanol to form a […]. The ability of the complexes containing DPPH radicals to scavenge radicals was evaluated in the manner described. Several concentrations of the Ti(IV) complexes were investigated. Mixtures created by mixing DPPH with each component were subjected to spectrophotometric analysis at 517 nm to determine the absorbance. Antioxidant compounds usually transfer one electron to act as a reducing agent.

HeLa cells [2] = experiment: AO–EB staining assay; type: cell-based, human; details: IC50 concentration, 48 hours
Method: A dual AO–EB staining fluorescent labelling technique was performed utilizing the Gohel et al. protocol, HeLa cells were seeded in 6-well plates at a density of 5 × 10^4. They were grown in a humidified CO2 incubator at 37 °C until they reached 70–80% confluency. […] The media were removed from each well, and the cells underwent two gentle room-temperature PBS rinses. Following that, the cells were combined with 100 μL of ethidium bromide and acridine orange dye and incubated separately for 15 minutes at 37 °C after staining separately, and the plates were observed and images were captured with an Olympus Confocal Laser Scanning Microscope—Fluoview Fv3000.[67,68]
The most important requirement in the creation of novel anticancer drugs is to determine the apoplastic induction caused by the drug concerned. AO–EB assay staining aids in the differentiation of necrotic, apoptotic, and living cells. By means of AO–EB staining, the morphological alterations caused by Ti-1-IS to Ti-6-IBr in HeLa cells were investigated. AO can penetrate intact cell membranes and dye them green; this distinction is caused in early apoptotic as well as normal cells. In contrast, EB can only enter cells that have lost their ability to form membranes, leaving an orange stain behind, identifying them as necrotic or late apoptotic cells.

HeLa cells [3] = experiment: Flow cytometry cell cycle analysis by PI staining; type: cell-based, human; details: 48 h, complexes at IC50, cis-platin 5 μM
Method: A flow cytometer was also used to do the apoptotic assessment. HeLa cells (5 × 10^5) were seeded onto 6-well plates using Dulbecco's Modified Eagle Medium paper (DMEM) with 10% FBS. The plates were incubated overnight at 37 °C with 95% air and 5% CO2. […] Following trypsinization, the cells were collected, cleaned with PBS, and fixed for 24 hours at 2–6 °C in ice-cold 70% ethanol. Centrifugation was used to remove the ethanol, and cold PBS was used twice to wash the cell pellets. Later the cells were stained with propidium iodide (PI, 1 mg mL^−1) and incubated for 30 min. Flow cytometric analysis was performed using a FACS scanner and the Becton Dickinson cell search program at 595 nm and the distribution of cells in various cell cycle phases was determined.[69,70]
Through cell cycle analysis, the mechanism of cancer cell death caused by the complexes was evaluated. Anticancer drugs promote growth-inhibitory action in cancer cells by a variety of mechanisms, one of which is dysfunction in the regulation of the cell cycle.[32] For example, cis-platin inhibits DNA transcription in cells by stopping the cell cycle in the S and G2/M phases. PI staining and flow cytometry were used to examine the ability of the complexes to modify the cell cycle (Fig. 19).

HeLa cells [4] = experiment: ROS generation, DCFH-DA staining; type: cell-based, human; details: IC50 doses, 48 hours
Method: HeLa cells of density 5 × 10^4 were seeded in six-well plates with high glucose DMEM and kept overnight until cell confluency was attained. […] The cells were treated with 10 mM 20,70-dichlorodihydrofluorescein diacetate (DCHF-DA) dye after washing twice with PBS buffer. Later, cells were incubated at 37 °C in complete darkness for 30 minutes. Subsequently, an inverted fluorescent microscope (Olympus Confocal Laser Scanning Microscope Fluoview Fv3000) was used to assess the ROS level of the cells. […] The amount of intracellular ROS was expressed as the average fluorescence intensity.[71,72]
ROS have been proposed as potential mediators of oxidative stress-induced apoptosis caused by titanium(IV) complexes, and the electrophoresis experiment mentioned above supports this theory.

| IC50 [1] [µM] | SMILES | Apoptosis induction by AO–EB staining (HeLa cells [2]) | G0/G1 phase (HeLa cells [3]) [%] | S Phase (HeLa cells [3]) [%] | Sub-G0 phase (HeLa cells [3]) [%] | ROS production compared to the control (HeLa cells [4]) |
| --- | --- | --- | --- | --- | --- | --- |
| 92.01 ± 0.1 | [O-]C(=NN=Cc1ccccc1[O-])c1ccncc1.[O-]C(=NN=Cc1ccccc1[O-])c1ccncc1.[Ti+4] [Ti-1-IS] |  |  |  |  |  |
| 128.1 ± 0.3 | [O-]C(=NN=Cc1c([O-])ccc2ccccc12)c1ccncc1.[O-]C(=NN=Cc1c([O-])ccc2ccccc12)c1ccncc1.[Ti+4] [Ti-2-IN] |  |  |  |  |  |
| 44.59 ± 0.4 | COc1cccc(C=NN=C([O-])c2ccncc2)c1[O-].COc1cccc(C=NN=C([O-])c2ccncc2)c1[O-].[Ti+4] [Ti-3-IO] | apoptosis was triggered | 18.32 | 19.41 | 28.48 | increased fluorescence |
| 82.61 ± 0.1 | [O-]C(=NN=Cc1cc(F)ccc1[O-])c1ccncc1.[O-]C(=NN=Cc1cc(F)ccc1[O-])c1ccncc1.[Ti+4] [Ti-4-IF] |  |  |  |  |  |
| 72.26 ± 0.7 | [O-]C(=NN=Cc1cc(Cl)ccc1[O-])c1ccncc1.[O-]C(=NN=Cc1cc(Cl)ccc1[O-])c1ccncc1.[Ti+4] [Ti-5-ICl] | apoptosis was triggered | 7.45 | 16.10 | 14.72 | increased fluorescence |
| 74.84 ± 0.2 | Brc1ccc2c(c1)C=NN=C(c1ccncc1)[O][Ti]1([O]C(c3ccncc3)=NN=Cc3cc(Br)ccc3[O]1)[O]2 (stereo not shown) [Ti-6-IBr] |  |  |  |  |  |
